Like-named read-outs stand apart in the source and are kept apart here.
What was measured:
Assay in all cases: Kinase panel profiling at 1 µmol/L (MSA or IMAP), percentage inhibition
Type in all cases: biochemical
[1] = biological target: T1, panel of 255 wild-type kinases (Homo sapiens, UniProt O15111); details: kinase IKKα; 1 µmol/L single concentration; read-out: %-inhibition at 1 µmol/L, IKKα
T1 sequence (O15111 1-745): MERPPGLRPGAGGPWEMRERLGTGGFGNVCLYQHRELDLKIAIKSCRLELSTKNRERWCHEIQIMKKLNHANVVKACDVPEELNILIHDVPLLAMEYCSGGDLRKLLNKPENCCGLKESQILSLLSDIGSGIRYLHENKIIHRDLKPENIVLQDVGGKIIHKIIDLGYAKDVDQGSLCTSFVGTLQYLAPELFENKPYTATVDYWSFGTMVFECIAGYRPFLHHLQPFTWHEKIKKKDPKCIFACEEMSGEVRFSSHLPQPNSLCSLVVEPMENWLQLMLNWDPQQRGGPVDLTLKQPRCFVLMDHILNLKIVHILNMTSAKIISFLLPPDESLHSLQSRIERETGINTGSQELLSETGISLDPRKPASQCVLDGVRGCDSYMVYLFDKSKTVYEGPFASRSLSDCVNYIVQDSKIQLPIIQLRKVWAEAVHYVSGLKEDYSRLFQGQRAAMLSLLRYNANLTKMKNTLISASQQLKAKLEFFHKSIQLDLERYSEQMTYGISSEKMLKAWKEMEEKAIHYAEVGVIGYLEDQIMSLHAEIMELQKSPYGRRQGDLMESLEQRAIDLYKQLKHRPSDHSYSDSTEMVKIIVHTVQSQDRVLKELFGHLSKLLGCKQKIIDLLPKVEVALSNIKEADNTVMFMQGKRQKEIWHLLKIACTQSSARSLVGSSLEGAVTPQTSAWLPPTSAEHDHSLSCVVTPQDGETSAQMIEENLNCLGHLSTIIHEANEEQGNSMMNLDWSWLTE

[2] = biological target: panel of 255 wild-type kinases (Homo sapiens, UniProt P06213); details: kinase INSR; 1 µmol/L single concentration; read-out: %-inhibition at 1 µmol/L, INSR
[3] = biological target: panel of 255 wild-type kinases (Homo sapiens, UniProt P17252); details: kinase PKCα; 1 µmol/L single concentration; read-out: %-inhibition at 1 µmol/L, PKCα
[4] = biological target: panel of 255 wild-type kinases (Homo sapiens, UniProt P23443); details: p70S6K; 1 µmol/L single concentration; read-out: %-inhibition, p70S6K
[5] = biological target: panel of 255 wild-type kinases (Homo sapiens, UniProt P24941); details: 1 µmol/L single concentration
[6] = biological target: panel of 255 wild-type kinases (Homo sapiens, UniProt P27448); details: MARK3; 1 µmol/L single concentration; read-out: %-inhibition, MARK3
[7] = biological target: T2, panel of 255 wild-type kinases (Homo sapiens, UniProt P51817); details: kinase PRKX; 1 µmol/L single concentration; read-out: %-inhibition at 1 µmol/L, PRKX
T2 sequence (P51817 1-358): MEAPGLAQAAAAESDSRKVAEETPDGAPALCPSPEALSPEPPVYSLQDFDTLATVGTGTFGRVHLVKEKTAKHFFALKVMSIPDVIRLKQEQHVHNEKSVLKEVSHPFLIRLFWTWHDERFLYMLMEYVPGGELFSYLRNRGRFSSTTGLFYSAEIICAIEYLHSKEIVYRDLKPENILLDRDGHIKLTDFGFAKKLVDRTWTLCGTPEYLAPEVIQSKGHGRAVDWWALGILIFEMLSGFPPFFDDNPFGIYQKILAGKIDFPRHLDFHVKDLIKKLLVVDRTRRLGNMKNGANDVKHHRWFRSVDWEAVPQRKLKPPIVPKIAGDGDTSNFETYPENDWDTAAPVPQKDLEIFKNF

[8] = biological target: panel of 255 wild-type kinases (Homo sapiens, UniProt P54756); details: kinase EPHA5; 1 µmol/L single concentration; read-out: %-inhibition at 1 µmol/L, EPHA5
[9] = biological target: panel of 255 wild-type kinases (Homo sapiens, UniProt Q04759); details: kinase PKCθ; 1 µmol/L single concentration; read-out: %-inhibition at 1 µmol/L, PKCθ
[10] = biological target: T3, panel of 255 wild-type kinases (Homo sapiens, UniProt Q06418); details: kinase TYRO3; 1 µmol/L single concentration; read-out: %-inhibition at 1 µmol/L, TYRO3
T3 sequence (Q06418 41-890): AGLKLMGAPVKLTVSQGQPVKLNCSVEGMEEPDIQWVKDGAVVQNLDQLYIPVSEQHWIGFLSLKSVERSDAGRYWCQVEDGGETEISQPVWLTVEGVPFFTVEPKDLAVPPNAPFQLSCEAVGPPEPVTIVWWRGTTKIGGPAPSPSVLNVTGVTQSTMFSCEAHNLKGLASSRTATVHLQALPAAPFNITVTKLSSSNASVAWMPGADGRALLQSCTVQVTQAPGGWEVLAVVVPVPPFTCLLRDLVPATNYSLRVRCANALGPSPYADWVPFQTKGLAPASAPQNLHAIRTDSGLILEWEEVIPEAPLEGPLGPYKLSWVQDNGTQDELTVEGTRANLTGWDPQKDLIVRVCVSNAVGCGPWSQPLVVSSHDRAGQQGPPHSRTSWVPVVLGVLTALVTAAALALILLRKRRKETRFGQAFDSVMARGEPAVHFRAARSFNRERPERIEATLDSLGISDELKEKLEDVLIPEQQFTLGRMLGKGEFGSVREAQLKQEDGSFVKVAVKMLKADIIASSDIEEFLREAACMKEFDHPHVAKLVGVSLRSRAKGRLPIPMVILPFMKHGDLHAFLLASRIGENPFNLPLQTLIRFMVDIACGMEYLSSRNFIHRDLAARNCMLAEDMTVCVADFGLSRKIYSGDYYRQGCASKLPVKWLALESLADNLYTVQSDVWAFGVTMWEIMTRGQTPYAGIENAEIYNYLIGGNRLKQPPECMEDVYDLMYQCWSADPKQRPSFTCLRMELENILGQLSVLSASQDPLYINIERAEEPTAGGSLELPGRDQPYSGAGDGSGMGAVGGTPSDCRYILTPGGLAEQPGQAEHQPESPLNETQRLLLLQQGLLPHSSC

[11] = CDK2/CycA2 kinase assay, read-out: %-inhibition CDK2/CycA2
[12] = CDK2/CycE1 kinase assay, read-out: %-inhibition CDK2/CycE1

| Compound | inhibition at 1 µM [1] | inhibition at 1 µM [2] | inhibition at 1 µM [3] | inhibition at 1 µM [4] | inhibition at 1 µM [5, 11] | inhibition at 1 µM [5, 12] | inhibition at 1 µM [6] | inhibition at 1 µM [7] | inhibition at 1 µM [8] | inhibition at 1 µM [9] | inhibition at 1 µM [10] |
| --- | --- | --- | --- | --- | --- | --- | --- | --- | --- | --- | --- |
| Cc1cc(Nc2ncnc3ccc(NC4=NC(C)(C)CO4)cc23)ccc1Oc1ccn2ncnc2c1 [tucatinib] | -1.68% | 3% | 5% | 15% | -0.285% | -36% | -10% | -1.54% | -13% | 0.763% | 6% |
| Cn1cnc2c(F)c(Nc3ccc(Br)cc3Cl)c(C(=O)NOCCO)cc21 [selumetinib] | -0.157% | 3% | 0.203% | 8% | 1.44% | -55% | -6% | -4.53% | -12% | -0.321% | 11% |
| COc1cc2ncnc(Nc3ccc(F)c(Cl)c3)c2cc1NC(=O)/C=C/CN1CCCCC1 [dacomitinib] | 10% | 1.81% | -4.53% | 33% | -13% | -16% | 10% | 0.677% | 34% | 1.57% | 27% |
| C[C@H]1Oc2cc(cnc2N)-c2c(nn(C)c2C#N)CN(C)C(=O)c2ccc(F)cc21 [lorlatinib] | 12% | 64% | 12% | 8% | 1.87% | -6.33% | 26% | 3.38% | 38% | 3% | 9% |
| CCN1C(=O)N(c2c(F)c(OC)cc(OC)c2F)Cc2cnc3[nH]c(CN4CCOCC4)cc3c21 [pemigatinib] | -6% | 9% | -1.62% | -0.418% | 3.55% | 7% | 56% | -1.75% | -2% | -2.16% | 4% |
| CO[C@]1(C(=O)N[C@@H](C)c2ccc(-n3cc(F)cn3)nc2)CC[C@H](c2nc(C)cc(Nc3cc(C)[nH]n3)n2)CC1 [pralsetinib] | -1.52% | 10% | 3% | 29% | 66% | 58% | -8% | -0.557% | 74% | -0.598% | 97% |
| C=CC(=O)N1CCC([C@@H]2CCNc3c(C(N)=O)c(-c4ccc(Oc5ccccc5)cc4)nn32)CC1 [zanubrutinib] | -10% | 4% | -2.63% | -3.21% | -2.82% | -15% | -1.28% | -1% | 0.0392% | -3% | 5.5% |
| Cn1cc(-c2cc3c(N4CCN(c5ncc([C@@](C)(N)c6ccc(F)cc6)cn5)CC4)ncnn3c2)cn1 [avapritinib] | 2.41% | 4.71% | 5% | 20% | -0.664% | -37% | -6% | 37% | 41% | 2.6% | 72% |

From publication PMC9516332 (Frontiers in Oncology, 2022)
